Source: patent US20250388569A1, “HETEROCYCLIC COMPOUND FOR INHIBITING AND/OR INDUCING DEGRADATION OF KRAS PROTEIN” (ASTELLAS PHARMA INC., priority 2022, published 2025)

Legend:
[1] = tested on: human G12D mutant KRAS-positive pancreatic cancer line AsPC-1; assay: Non-anchorage-dependent cell growth inhibitory effect, spheroid 3D cell culture (Test Example 2); assay type: cell-based; settings: AsPC-1 spheroid 3D culture, 6 days, CellTiter Glo 2.0
Experimental: Test Example 2: Evaluation of Non-Anchorage-Dependent Cell Growth Inhibitory Effect on Human G12D Mutant KRAS-Positive Pancreatic Cancer Line AsPC-1
The non-anchorage-dependent cell growth inhibitory effect of test compounds was evaluated by spheroid 3D cell culture.
AsPC-1 cells were seeded on low-cell-adhesive round bottom 384-well plates (PrimeSurface: from Sumitomo Bakelite) at 36 μL/well to give 5×10^2 cells per well. As for the cell culture conditions, RPMI 1640 medium containing 10% fetal bovine serum was used in the presence of 5% CO2 at 37° C.
The next day, the test compounds (6 points having final concentrations in the range of 10 μM to 30 nM) and DMSO, which was the solvent for the test compounds, as a negative control were diluted 100-fold with a fresh medium and were added at 4 μL per well. After culturing in the presence of 5% CO2 at 37° C. for 6 days, CellTiter Glo 2.0 (from Promega) was added at 20 μL per well. After stirring with a plate mixer (from FINEPCR) at normal temperature for 1 hour, the luminescent signals were measured with ARVO X3 (from PerkinElmer).
With the signaling value in treatment with DMSO taken as 100% and with the signaling value in the medium alone without cells taken as 0%, the 50% inhibitory concentration values (IC50) were calculated by Sigmoid-Emax nonlinear regression analysis.

KRAS G12D = biological target: T1, KRAS G12D (Homo sapiens, UniProt P01116, G12D); assay: Evaluation of KRAS degradation activity on AsPC-1 by Cell ELISA (Test Example 1); assay type: cell-based; settings: degradation rate of KRAS G12D at 1 μM in AsPC-1 cells, cultured overnight, corrected with β-actin
T1 construct: host or cells: AsPC-1 human pancreatic cancer cells
Experimental: Test Example 1: Evaluation of KRAS Degradation Activity on Human G12D Mutant KRAS-Positive Pancreatic Cancer Line AsPC-1 (CRL-1682; ATCC)
The KRAS degradation activity of test compounds was evaluated by measuring the expression levels of KRAS G12D by Cell ELISA.
AsPC-1 cells were seeded at 20 μL per well on 384-well plates (from Greiner bio-one) to give 2.0×10^4 cells per well. As for the cell culture conditions, RPMI 1640 (from Sigma-Aldrich) medium containing 10% fetal bovine serum (from Cytiva) was used in the presence of 5% CO2 at 37° C.
The next day, the test compounds (10 points having final concentrations in the range of 10 μM to 0.3 nM) and DMSO (from FUJIFILM Wako Pure Chemical Corporation), which was the solvent for the test compounds, as a negative control were diluted 500-fold with a fresh medium and were added at 20 μL per well. The cells were cultured overnight.
The next day, the culture supernatant was removed, and 4% paraformaldehyde phosphate buffer (from FUJIFILM Wako Pure Chemical Corporation) was added at 20 μL per well. The plates were allowed to stand for 30 minutes at room temperature to thus immobilize the cells. Then, the supernatant was removed, and 0.1% Triton X-100 (from Amersham Biosciences)-containing Phosphate buffered saline (PBS; from FUJIFILM Wako Pure Chemical Corporation) was added at 20 μL per well. After allowing to stand for 10 minutes at room temperature, the supernatant was removed. PBS was added at 25 μL per well, and the supernatant was removed to thus wash each well. The washing was performed twice in total. Next, the supernatant was removed, and 0.5% sodium dodecyl sulfate (SDS; from Invitrogen)-containing PBS was added at 20 μL per well. After allowing to stand at room temperature for 10 minutes, the supernatant was removed by a centrifugal operation (using a centrifugal dehydrator machine, the supernatant was removed by the same method hereinafter). PBS was added at 25 μL per well, and the supernatant was removed to thus wash each well. The washing was performed twice in total. The supernatant was removed, and blocking solution (Intercept Blocking Buffer; from Li-COR Biosciences) was added at 20 μL per well. After allowing to stand for 30 minutes at room temperature, the supernatant was removed, and a solution obtained by diluting anti-β-actin antibody (Anti-beta Actin antibody [mAbcam 8226]-Loading Control; from abcam) 1,000-fold with blocking solution and a solution obtained by diluting anti-Ras (G12D Mutant Specific) antibody (Ras (G12D Mutant Specific) (D8H7) Rabbit mAb #14429; from Cell Signaling Technology) and anti-β-actin antibody (from abcam) 1,000-fold with blocking solution were respectively added to positive control wells and the other wells at 15 μL per well as a primary antibody. The plates were allowed to stand overnight at 4° C.
The next day, the supernatant was removed. PBS was added at 25 μL per well, and the supernatant was removed to thus wash each well. The washing was performed twice in total. The supernatant was removed, and a solution obtained by diluting Donkey anti-Mouse IgG H&L (IRDye 680RD) (from Li-COR Biosciences) and Goat anti-Rabbit IgG H&L (IRDye 800CW) (from Li-COR Biosciences) 1,000-fold with blocking solution was added at 15 μL per well as a secondary antibody. After allowing to stand for 1 hour at room temperature, the supernatant was removed. PBS was added at 25 μL per well, and the supernatant was removed to thus wash each well. The washing was performed twice in total. After removing the supernatant, the plates were dried with air at room temperature for 2 hours or more, and the 700 nm and 800 nm fluorescent signals were measured with Aerius (from Li-COR Biosciences). […]

Row | IC50 ([1]; Homo sapiens, ASPC1, 144 h) | % degradation (KRAS G12D) | IC50 [1] | Compound
1 | 2.3 µM |  |  | Cc1c(F)cc2[nH]ncc2c1-c1c(C2CC2)cc2c(N3C[C@@H]4C[C@H]3CN4)nc(OC3CCOCC3)nc2c1OCc1ccc(C(=O)N2CCN(CCCOc3ncc4c(n3)CCN(C(=O)c3cc(C(C)C)c(O)cc3O)C4)CC2)cc1 (atropisomer, axis not shown) [Example 19]
2 |  | 30% |  | CO[C@@H](C)COc1cc(O[C@H]2CCNC2)c2cc(C3CC3)c(-c3c(C)c(F)cc4[nH]ncc34)c(OCc3ccc(C(=O)N4CCN(C(=O)c5ccc6c(c5)CN(C(=O)c5cc(C(C)C)c(O)cc5O)C6)C[C@@H]4C)cc3)c2n1 [Example 16]
3 | 2 µM | 57% |  | CO[C@@H](O)COc1nc(N(C)[C@H]2CCNC2)c2cc(C3CC3)c(-c3c(C)c(F)cc4[nH]ncc34)c(OCc3ccc(C(=O)N4CCN(C(=O)c5ccc6c(c5)CN(C(=O)c5cc(C(C)C)c(O)cc5O)C6)C[C@@H]4C)cc3)c2n1 (atropisomer, axis not shown) [Example 13]
4 | 7.4 µM | 20% |  | Cc1c(F)cc2[nH]ncc2c1-c1c(C2CC2)cc2c(N3C[C@@H]4C[C@H]3CN4)nc(OC3CCOCC3)nc2c1OCc1ccc(C(=O)N2CCN(C(C)C(=O)c3ccc4c(c3)CN(C(=O)c3cc(C(C)C)c(O)cc3O)C4)CC2)cc1 (stereo partly shown) [Example 18]
5 | 1.9 µM | 44% |  | Cc1c(F)cc2[nH]ncc2c1-c1c(C2CC2)cc2c(N3C[C@@H]4C[C@H]3CN4)nc(OC3CCOCC3)nc2c1OCc1ccc(C(=O)N2CCN(C(=O)c3ccc4c(c3)CN(C(=O)c3cc(C(C)C)c(O)cc3O)C4)C[C@@H]2C)cc1 (atropisomer, axis not shown) [Example 2]
6 |  | 46% | 2.2 µM | {4-[({(7M)-6-cyclopropyl-4-[(1S,4S)-2,5-diazabicyclo[2.2.1]heptan-2-yl]-7-(6-fluoro-5-methyl-1H-indazol-4-yl)-2-[(oxan-4-yl)oxy]quinazolin-8-yl}oxy)methyl]phenyl) {4-[(4-{3-[2,4-dihydroxy-5-(propan-2-yl)phenyl]-5-hydroxy-4H-1,2,4-triazol-4-yl)phenyl)methyl]piperazin-1-yl}methanone [Example 5]
7 | 3.9 µM | 17% |  | Cc1c(F)cc2[nH]ncc2c1-c1c(C2CC2)cc2c(N3C[C@@H]4C[C@H]3CN4)nc(OC3CCOCC3)nc2c1OCc1ccc(CN2CCN(C(=O)c3ccc4c(c3)CN(C(=O)c3cc(C(C)C)c(O)cc3O)C4)CC2)cc1 (atropisomer, axis not shown) [Example 15]
8 | 3.7 µM | 37% |  | Cc1c(F)cc2[nH]ncc2c1-c1c(C2CC2)cc2c(N3C[C@@H]4C[C@H]3CN4)nc(OC3CCOCC3)nc2c1OCc1ccc(C(=O)N2CCC3(CC2)CN(Cc2ccc4c(c2)CN(C(=O)c2cc(C(C)C)c(O)cc2O)C4)C3)cc1 (atropisomer, axis not shown) [Example 10]
9 |  | 20% |  | Cc1c(F)cc2[nH]ncc2c1-c1c(C2CC2)cc2c(N3C[C@@H]4C[C@H]3CN4)nc(OC3CCOCC3)nc2c1OCc1ccc(C(=O)N2CCCN(Cc3ccc4c(c3)CN(C(=O)c3cc(C(C)C)c(O)cc3O)C4)CC2)cc1 (atropisomer, axis not shown) [Example 7]
10 | 3.5 µM | 20% |  | Cc1c(F)cc2[nH]ncc2c1-c1c(C2CC2)cc2c(N3C[C@@H]4C[C@H]3CN4)nc(OC3CCOCC3)nc2c1OCc1ccc(C(=O)N2CCN(CC3CN(Cc4ccc5c(c4)CN(C(=O)c4cc(C(C)C)c(O)cc4O)C5)C3)CC2)cc1 (atropisomer, axis not shown) [Example 12]
11 | 2.8 µM | 46% |  | Cc1c(F)cc2[nH]ncc2c1-c1c(C2CC2)cc2c(N3C[C@@H]4C[C@H]3CN4)nc(OC3CCOCC3)nc2c1OCc1ccc(C(=O)N2CCN(C(=O)c3ccc4c(c3)CN(C(=O)c3cc(C(C)C)c(O)cc3O)C4)C[C@H]2C)cc1 (atropisomer, axis not shown) [Example 3]
12 | 5.1 µM | 15% |  | Cc1c(F)cc2[nH]ncc2c1-c1c(C2CC2)cc2c(N3C[C@@H]4C[C@H]3CN4)nc(OC3CCOCC3)nc2c1OCc1ccc(C(=O)N2C[C@H]3CN(Cc4ccc5c(c4)CN(C(=O)c4cc(C(C)C)c(O)cc4O)C5)C[C@H]3C2)cc1 (atropisomer, axis not shown) [Example 4]
13 | 3.6 µM | 25% |  | Cc1c(F)cc2[nH]ncc2c1-c1c(C2CC2)cc2c(N3C[C@@H]4C[C@H]3CN4)nc(OC3CCOCC3)nc2c1OCc1ccc(C(=O)N2CCN(Cc3ccc4c(c3)CN(C(=O)c3cc(C(C)C)c(O)cc3O)C4)CC2)cc1 (atropisomer, axis not shown) [Example 6]
14 | 2.9 µM | 51% |  | Cc1c(F)cc2[nH]ncc2c1-c1c(C2CC2)cc2c(N3C[C@@H]4C[C@H]3CN4)nc(OC3CCOCC3)nc2c1OCc1ccc(C(=O)N2CCN(C3CCN(Cc4ccc5c(c4)CN(C(=O)c4cc(C(C)C)c(O)cc4O)C5)CC3)CC2)cc1 (atropisomer, axis not shown) [Example 11]
15 | 3.3 µM | 43% |  | Cc1c(F)cc2[nH]ncc2c1-c1c(C2CC2)cc2c(N3C[C@@H]4C[C@H]3CN4)nc(OC3CCOCC3)nc2c1OCc1ccc(C(=O)N2CCN(C(=O)c3ccc4c(c3)CN(C(=O)c3cc(C(C)C)c(O)cc3O)C4)CC2)cc1 (atropisomer, axis not shown; (M)) [Example 1, [5-(4-{4-[({(7M)-6-cyclopropyl-4-[(1S,4S)-2,5-diazabicyclo[2.2.1]heptan-2-yl]-7-(6-fluoro-5-methyl-1H-indazol-4-yl)-2-[(oxan-4-yl)oxy]quinazolin-8-yl}oxy)methyl]benzoyl)piperazine-1-carbonyl)-1,3-dihydro-2H-isoindol-2-yl][2,4-dihydroxy-5-(propan-2-yl)phenyl]methanone]

Row | Compound | IC50 ([1]; Homo sapiens, ASPC1, 144 h) | % degradation (KRAS G12D) | IC50 [1]
16 | Cc1c(F)cc2[nH]ncc2c1-c1c(C2CC2)cc2c(N3C[C@@H]4C[C@H]3CN4)nc(OC3CCOCC3)nc2c1OCc1ccc(C(=O)N2C3CCC2CN(Cc2ccc4c(c2)CN(C(=O)c2cc(C(C)C)c(O)cc2O)C4)C3)cc1 [Example 9] | 3.4 µM |  | 
